Molecules are shown by their SMILES. “Also recorded” adds a separate entry of the source.

One assay has as its target purified γ-secretase (Homo sapiens, UniProt P49768). Put plainly: Inhibition constant. The note with it: double-reciprocal plots, varying C100Flag. It is filed as biochemical.
The target of the next assay is γ-secretase (Homo sapiens, UniProt P49768). Put plainly: Cross-competition kinetic experiments between two inhibitors. It is filed as biochemical. The note with it: [38] = 0, 0.15, 0.30, 0.60 nM; C100 0.50 μM; parallel lines indicate cross-competition.

As to `CC[C@@H](C)[C@@H](NC(=O)[C@H](NC(=O)[C@H](NC(=O)C(C)(C)NC(=O)CNC(=O)[C@H](NC(=O)OC(C)(C)C)C(C)C)C(C)C)C(C)C)C(=O)NC(C)(C)C(=O)N[C@@H](C(=O)N[C@@H](C(=O)NC(C)(C)C(=O)NCCCCCCCCCCC(=O)N[C@H](C(=O)N[C@@H](Cc1ccccc1)[C@H](O)CN(Cc1ccccc1)C(=O)N[C@@H](CC(C)C)C(=O)N[C@H](C(N)=O)C(C)C)C(C)C)C(C)C)[C@H](C)O` [Compound 38, Boc-^DVal-Gly-Aib-^DVal-^DVal-^DIle-Aib-^DThr- ^DVal-Aib-NH(CH2)10CO-Val-Phe-ψ-Phe-Leu-Val-NH2], on purified γ-secretase, the “Inhibition profile (mode of inhibition)” value is listed as “noncompetitive; also recorded: non-competitive inhibition”. Also, at γ-secretase, the “Cross-competition with TSA 1 and HPI 2 for binding” value is “could compete with both TSA 1 and HPI 2; also recorded: competes with both TSA 1 and HPI 2”.

The record behind these values is PMC8918029 (Journal of medicinal chemistry, 2021).
